Data from ChEMBL document CHEMBL3120142 (J Med Chem, 2014).
The source made the active and inactive calls. The calls are words filed in the database; no cut-off is given here.

Test system: Influenza A virus
Format: functional, organism-based
Details: A/Berlin/55/08(H1N1), MDCK

Row | Structure (SMILES) | Activity
1 | CCC(CC)O[C@@H]1C=C(C(=O)O)C[C@H](N)[C@H]1NC(C)=O [OSELTAMIVIR CARBOXYLATE] | Active
2 | CC(=O)N[C@H]1[C@H]([C@H](O)[C@H](O)CO)OC(C(=O)O)=C[C@@H]1NC(=N)N [ZANAMIVIR] | Active
